The record followed here is US20190031618A1, “BENZIMIDAZOLE DERIVATIVES USEFUL AS CB-1 INVERSE AGONISTS” (Janssen Pharmaceutica NV, priority 2015, published 2019).

For assay [1], the target named is Human CB1R (Cannabinoid receptor 1) (Homo sapiens, UniProt P21554). The experiment in a line: CB-1 in vitro cAMP (HTRF) assay. The note with it: HEK cells, cAMP HTRF, 250 nM forskolin; mean where tested more than once; read-out: CB1 HEK_cAMP EC50. Format: cell-based. The essentials:
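Intracellular cAMP from HTRF ratio (d2-cAMP vs Eu-cryptate anti-cAMP), converted to nM via per-plate standards, in stable human CB1R HEK-293 cells.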
On the technique in general: In TR-FRET formats the signal depends on donor and acceptor labels being close together.

Assay [2] deals with Human CB2R (Cannabinoid receptor 2) (Homo sapiens, UniProt P34972). Description: CB-2 in vitro cAMP (HTRF) assay. Format: cell-based. The settings on record: HEK cells, cAMP HTRF, 250 nM forskolin; mean where tested more than once; read-out: CB2 HEK_cAMP EC50. The essentials:
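Competitive HTRF read-out (d2-labelled cAMP vs cryptate antibody) quantifies cAMP in stably transfected HEK-293 cells, seeded the day before at 4E5 cells/mL. Stimulation buffer: HBSS, 5 mM HEPES, 0.1% BSA, 0.5 mM IBMX; forskolin prepared at 1.5 μM in buffer; compounds serially diluted 1/3 in DMSO.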

Molecules are shown by their SMILES.

Chain of Human CB1R (Cannabinoid receptor 1) (P21554 whole entry): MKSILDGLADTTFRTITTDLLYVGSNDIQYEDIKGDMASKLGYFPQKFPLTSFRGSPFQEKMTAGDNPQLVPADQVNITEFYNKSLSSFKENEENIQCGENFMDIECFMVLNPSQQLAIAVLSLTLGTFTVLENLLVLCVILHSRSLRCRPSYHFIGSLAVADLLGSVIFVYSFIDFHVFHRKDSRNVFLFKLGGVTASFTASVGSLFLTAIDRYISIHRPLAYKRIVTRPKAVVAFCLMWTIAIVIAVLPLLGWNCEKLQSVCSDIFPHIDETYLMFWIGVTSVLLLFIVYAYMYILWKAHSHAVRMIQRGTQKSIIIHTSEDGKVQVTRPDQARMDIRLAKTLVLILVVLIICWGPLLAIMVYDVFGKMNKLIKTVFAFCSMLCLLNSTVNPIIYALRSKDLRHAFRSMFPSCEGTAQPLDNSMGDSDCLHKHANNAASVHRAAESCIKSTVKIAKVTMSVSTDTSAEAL
Chain of Human CB2R (Cannabinoid receptor 2) (P34972 whole entry): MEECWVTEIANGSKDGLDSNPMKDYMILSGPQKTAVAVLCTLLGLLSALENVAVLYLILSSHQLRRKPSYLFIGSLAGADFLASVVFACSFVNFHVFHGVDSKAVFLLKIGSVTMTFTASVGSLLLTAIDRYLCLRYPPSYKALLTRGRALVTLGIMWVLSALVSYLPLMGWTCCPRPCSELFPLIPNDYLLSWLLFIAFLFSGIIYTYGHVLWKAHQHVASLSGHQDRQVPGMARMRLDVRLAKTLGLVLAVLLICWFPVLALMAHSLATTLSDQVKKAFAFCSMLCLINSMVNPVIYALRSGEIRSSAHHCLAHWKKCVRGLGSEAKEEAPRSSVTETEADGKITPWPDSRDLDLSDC

For the compound `Oc1cccc(N[C@H]2CC[C@H](n3c(C4CC4)nc4ccc(C(c5ccc(Cl)cc5)c5ccc(Cl)cc5)cc43)CC2)c1` [Example 28], the results for the EC50 in assay [1] and in assay [2] were 21.5 nM and above 10000 nM, respectively.
For the compound `OCc1nc2ccc(C(c3ccc(Cl)cc3)c3nccs3)cc2n1-c1cccc(Cl)c1` (stereo not drawn) [Example 374], the EC50 in assay [1] is 1120 nM; in assay [2], above 10000 nM.
For `O=C(O)c1ccc(C(=O)N2CCC(n3c(C4CC4)nc4ccc(C(c5ccc(Cl)cc5)c5ccc(Cl)cc5)cc43)CC2)cc1` [Example 246] the same measures were 1430 nM and above 10000 nM.
For the compound `O=S(=O)(c1ccc(OC(F)(F)F)cc1)N1CCC(n2c(C3CC3)nc3ccc(C(c4ccc(Cl)cc4)c4ccc(Cl)cc4)cc32)CC1` [Example 279], the EC50 in assay [1] is 32.2 nM; in assay [2], above 10000 nM.
For `CCOC(=O)COc1cccc(-n2c(C3CC3)nc3ccc(C(c4ccc(Cl)cc4)c4ccc(Cl)cc4)cc32)c1` [Example 173], the results for the EC50 in assay [1] and in assay [2] were 55.9 nM and 9200 nM, respectively.
For `O=S(=O)(c1ccc(CO)o1)N1CCC(n2c(C3CC3)nc3ccc(C(c4ccc(Cl)cc4)c4ccc(Cl)cc4)cc32)CC1` [Example 55] the same measures were 12.3 nM and 2740 nM.
On to `O=C(O)[C@H]1CC[C@@H](n2c(C3CC3)nc3ccc(C(c4ccc(Cl)cc4)c4ccc(Cl)cc4)cc32)CC1` [Example 137], for which the EC50 was 9000 nM in assay [1] and above 10000 nM in assay [2].
On to `CCOC(=O)N1CCC(n2c(N(C)C)nc3ccc(C(c4ccc(Cl)cc4)c4nccs4)cc32)CC1` (stereo not drawn) [Example 439], for which the EC50 in assay [1] and in assay [2] was above 10000 nM each time.
With `O=C(O)c1ccc(-c2ccc(CCn3c(C4CC4)nc4ccc(C(c5ccc(Cl)cc5)c5ccc(Cl)cc5)cc43)cc2)cc1` [Example 25], the EC50 was 1650 nM in assay [1] and above 10000 nM in assay [2].
Consider `Clc1ccc(C(c2ccc3ncn(-c4cccc(Cl)c4)c3c2)c2nccs2)cc1` (stereo not drawn) [Example 435], for which the EC50 in assay [1] and in assay [2] was above 10000 nM throughout.
`Clc1ccc(C(c2ccc3nc(C4CC4)n(C4Cc5ccccc5C4)c3c2)c2nccs2)cc1` (stereo not drawn) [Example 362]: the values for the EC50 in assay [1] and in assay [2] were 212 nM and above 10000 nM, respectively.
`COc1cc(S(=O)(=O)N2CCC(n3c(C4CC4)nc4ccc(C(c5ccc(Cl)cc5)c5ccc(Cl)cc5)cc43)CC2)ccc1C(=O)O` [Example 251]: the EC50 in assay [1] came out at 5.8 nM; in assay [2], 730 nM.
`NS(=O)(=O)N1CCC(n2c(C3CC3)nc3ccc(C(c4ccc(Cl)cc4)c4ccc(Cl)cc4)cc32)CC1` [Example 274]: the results for the EC50 in assay [1] and in assay [2] were 133 nM and above 10000 nM, respectively.
On to `O=S(=O)(N1CCC(n2c(C3CC3)nc3c(O)cc(C(c4ccc(Cl)cc4)c4ccc(Cl)cc4)cc32)CC1)C(F)(F)F` [Example 202], for which the values for the EC50 in assay [1] and in assay [2] were 31.2 nM and above 10000 nM, respectively.
For the compound `CCc1nc2ccc(C(C(=O)O)(c3ccc(Cl)cc3)c3ccc(Cl)cc3)cc2n1C1CCN(S(=O)(=O)C(F)(F)F)CC1` [Example 266], the EC50 in assay [1] was 18.4 nM; in assay [2], above 10000 nM.
For the compound `COc1cccc(S(=O)(=O)N2CCC(n3c(C4CC4)nc4ccc(C(c5ccc(Cl)cc5)c5ccc(Cl)cc5)cc43)CC2)c1` [Example 261], the EC50 was 21.9 nM in assay [1] and above 10000 nM in assay [2].
With `O=C(O)c1cccc(N[C@H]2CC[C@H](n3c(C4CC4)nc4ccc(C(c5ccc(Cl)cc5)c5ccc(Cl)cc5)cc43)CC2)c1` [Example 31], the concentration for a half-maximal effect (EC50) in assay [1] turned out to be 150 nM; in assay [2], 3000 nM.
The like results for `O=C(c1c[nH]nn1)N1CCC(n2c(C3CC3)nc3ccc(C(c4ccccc4)c4ccccc4)cc32)CC1` [Example 198] were, in that order, 4800 nM and above 10000 nM.
For `O=C(OC[C@@H](O)[C@H](O)CO)N1CCC(n2c(C3CC3)nc3ccc(C(c4ccc(Cl)cc4)c4ccc(Cl)cc4)cc32)CC1` [Example 102] the same measures were 33.3 nM and 8140 nM.
Consider `Cc1nc2ccc(C(c3ccc(Cl)cc3)c3nc(C(F)(F)F)cs3)cc2n1Cc1ccc(Cl)cc1` (stereo not drawn) [Example 455], for which the figures for the EC50 in assay [1] and in assay [2] were 2410 nM and above 7400 nM, respectively.
On to `CCc1csc(C(c2ccc(Cl)cc2)c2ccc3nc(C)n(Cc4ccc(Cl)cc4)c3c2)n1` (stereo not drawn) [Example 452], for which the figures for the EC50 in assay [1] and in assay [2] were 813 nM and above 6700 nM, respectively.
`O=S(=O)(N1CCC(n2c(-c3ccccn3)nc3ccc(C(c4ccc(Cl)cc4)c4nccs4)cc32)CC1)C(F)(F)F` (stereo not drawn) [Example 385]: the EC50 in assay [1] is 524 nM; in assay [2] it was above 10000 nM.
On to `CCOC(=O)N1CCC(n2c(C3CNC3)nc3ccc(C(c4ccc(Cl)cc4)c4nccs4)cc32)CC1` (stereo not drawn) [Example 414], for which the concentration giving a half-maximal response (EC50) is 1490 nM in assay [1] and above 10000 nM in assay [2].
`Clc1ccc(C(c2ccc3nc(-c4ccsc4)n(-c4cccc(Cl)c4)c3c2)c2nccs2)cc1` (stereo not drawn) [Example 375]: the EC50 was 755 nM in assay [1] and above 10000 nM in assay [2].
For `CCc1nc2ccc(C(c3ccc(Cl)cc3)c3nccs3)cc2n1-c1cccc(Cl)c1` (stereo not drawn) [Example 434] the same measures were 22.7 nM and above 10000 nM.
The like results for `CC(C)c1nc2ccc(C(c3ccc(Cl)cc3)c3nccs3)cc2n1-c1cccc(Cl)c1` (stereo not drawn) [Example 402] were, in that order, 192 nM and above 10000 nM.
On to `CCOC(=O)N1CCC(n2c(C3CCOCC3)nc3ccc(C(c4ccc(Cl)cc4)c4nccs4)cc32)CC1` (stereo not drawn) [Example 412], for which the values for the EC50 in assay [1] and in assay [2] were 623 nM and above 10000 nM, respectively.
`NC(=O)[C@H]1CC[C@@H](n2c(C3CC3)nc3ccc(C(c4ccc(Cl)cc4)c4ccc(Cl)cc4)cc32)CC1` [Example 136]: the EC50 in assay [1] stood at 32 nM; in assay [2], 9100 nM.
For the compound `O=C(O)c1ccc(N[C@H]2CC[C@H](n3c(C4CC4)nc4ccc(C(c5ccc(Cl)cc5)c5ccc(Cl)cc5)cc43)CC2)cc1` [Example 30], the values for the EC50 in assay [1] and in assay [2] were 40.2 nM and 1620 nM, respectively.
The like results for `CCOC(=O)N1CCC(n2c(C3CN(C(=O)OC(C)(C)C)C3)nc3ccc(C(c4ccc(Cl)cc4)c4nccs4)cc32)CC1` (stereo not drawn) [Example 417] were, in that order, 2540 nM and above 10000 nM.
The like results for `Cc1nc2ccc(C(c3ccc(Cl)cc3)c3nccs3)cc2n1-c1cccc(Cl)c1` (stereo not drawn) [Example 436] were, in that order, 473 nM and above 10000 nM.
With `O=C(O)COc1ccc(S(=O)(=O)N2CCC(n3c(C4CC4)nc4ccc(C(c5ccc(Cl)cc5)c5ccc(Cl)cc5)cc43)CC2)cc1` [Example 256], the concentration giving a half-maximal response (EC50) was 129 nM in assay [1] and above 10000 nM in assay [2].
Turning to `NC(=O)c1cccc(N2CCC(n3c(C4CC4)nc4ccc(C(c5ccc(Cl)cc5)c5ccc(Cl)cc5)cc43)CC2)c1` [Example 162], the EC50 in assay [1] was determined as 6.2 nM; in assay [2] it was 4490 nM.
With `O=C(O)c1cc(S(=O)(=O)N2CCC(n3c(C4CC4)nc4ccc(C(c5ccc(Cl)cc5)c5ccc(Cl)cc5)cc43)CC2)ccc1F` [Example 226], the EC50 was 16.7 nM in assay [1] and 7820 nM in assay [2].
As for `CC(C)Cc1nc2ccc(C(c3ccc(Cl)cc3)c3nccs3)cc2n1-c1cccc(Cl)c1` (stereo not drawn) [Example 433], the EC50 in assay [1] and in assay [2] was above 10000 nM in each case.
With `CCOC(=O)N1CCC(n2c(-c3ccc(Cl)cc3)nc3ccc(C(c4ccc(Cl)cc4)c4nccs4)cc32)CC1` (stereo not drawn) [Example 441], the figures for the EC50 in assay [1] and in assay [2] were 2090 nM and above 10000 nM, respectively.

The EC50 is the midpoint of the concentration-response curve.
